Source: US20060106032A1, “Synthesis of N2 - (substituted arylmethyl) -3- (substituted phenyl) indazoles as novel anti-angiogenic agents” (YUNG SHIN PHARM. IND. CO., LTD., priority 2004, published 2006)

How the values were obtained:
[1] = tested on: Human umbilical vein endothelial cells (HUVECs); assay: [3H]thymidine incorporation assay: VEGF-induced cell proliferation (DNA synthesis) of HUVECs; assay type: cell-based; conditions: VEGF 10 ng/mL; for activity on VEGF-induced cell proliferation of HUVECs compared with positive control YD-3: 1 μM
Description: (§1) Human umbilical vein endothelial cells were incubated in the absence (basal and control) or presence of tested sample (YD-3, 10, 15, 17, 21, 25, 26) with 30 μM, and then vascular endothelial growth factor (VEGF) was added (except for basal) to induce DNA synthesis, which was detected using [^3H] thymidine incorporation assay.
as §1, with “10” for “30”, “inducd” for “induce”, “assay. Means±S.E. (n=5) were presented.” for “assay.”
as §1, with “1” for “30”, “inducd” for “induce”, “assay. Means±S.E. (n=5) were presented.” for “assay.”
(§2) Human umbilical vein endothelial cells (HUVECS) were isolated according to the protocols from Jaffe et al. and obtained from human umbilical cord veins with collagenase and cultured in 75 cm^2 plastic flasks in M199 containing 20% FBS, 15 μg/mL endothelial cell growth supplements (ECGs). Confirmation of their identity as endothelial cells was provided by detection of CD31 (PECAM-1), assessed by immunostaining. Experiments were conducted on HUVECs that had used in passage 2 to 5.
Confluent HUVECs were trypsinized, suspended in DMEM supplemented with 20% FBS, and seeded at 1.0×10^4 cells per well into 96-well plates. After 24 h, the cells were washed twice with PBS and starved with 2% FBS-M199 medium for 24 h. The cells were incubated with or without indicated reagents and growth factors (VEGF; 10 ng/mL) for 24 h and harvested. Before the harvest, cells were incubated with [^3H]thymidine (2 μCi/mL) for 4 h, harvested with Filter-Mate (Packard), and incorporated radioactivity was determined.
The effect of tested compounds on VEGF-induced cell proliferation of HUVECs was assessed with the [^3H]thymidine incorporation assay, and the results were illustrated in FIG. 5-FIG. 7.

[2] = tested on: Human umbilical vein endothelial cells (HUVECs); assay: VEGF-induced tube formation of HUVECs on Matrigel; assay type: cell-based; conditions: FIG. 8; for blockage of VEGF-induced tube formation of HUVECs: Matrigel-coated chamberslide
Description: FIG. 8 show photographs of the results of in vitro assay (inhibition of tube formation). Human umbilical vein endothelial cells were cultured onto chamberslide, which was precoated with Matrigel (10 mg/ml). Cells were treated without (basal and control) or with tested sample (YD-3, 10, 15, 17, 21, 25, 26) and then vascular endothelial growth factor (VEGF) was added to induce tube formation. All photographs were taken at 100×magnification.
as §2

[3] = tested on: VEGF-induced angiogenesis in Matrigel plug; assay: In vivo Matrigel plug assay (neovascular formation, hemoglobin concentration); conditions: nude mice, FIG. 9; for anti-angiogenic activity in Matrigel plug assay (hemoglobin concentration): 150 ng/ml VEGF plug, oral, seven-day administration
Description: Nude mice were subcutaneously injected with a Matrigel plug containing 150 ng/ml vascular endothelial growth factor (VEGF). Vehicle or tested sample (YD-3, 10, 15, 17, 21, 25, 26) was orally administered into the mice. After a seven-day administration, the animals were euthanized and the plugs were cut of the mice for the measurement of angiogenic effect using the hemoglobin concentration as the parameter by means of a hemoglobin detection kit (Sigma). Means±S.E. (n=3) were presented. Nude mice (6 weeks of age) were given s.c. injections of 500 μL of Matrigel (Becton Dickinson, Bedford, Mass.) at 4° C. with or without YC-1 and growth factor (150 ng/mL VEGF). After injection, the Matrigel rapidly formed a plug. After 7 days, the skin of the mouse was easily pulled back to expose the Matrigel plug, which remained intact. After quantitative differences were noted and photographed, hemoglobin was measured, as an indication of blood vessel formation, using the Drabkin method (Drabkin reagent kit 525, Sigma, St. Louis, Mo.). The concentration of hemoglobin was calculated from a known amount of hemoglobin assayed in parallel. The in vivo Matrigel plug assay was used in this study to determine quantitative the anti-angiogenic effect of tested compounds.

[4] = tested on: angiogenesis; assay: Evaluation for anti-angiogenic activities (overall summary); conditions: summary statement
Description: 3-(4-Methylphenyl)-1H-indazole (10) and N^2-(substituted benzyl)-3-(4-methylphenyl)indazoles (15, 17, 21, 25, 26) were evaluated for anti-angiogenic activities.
In this study, 3-(4-methylphenyl)-1H-indazole (10) and five of the above mentioned N^2-regioisomers, namely, compounds 15, 17, 21, 25 and 26 were selected for evaluating their effects on VEGF-induced cell proliferation, on VEGF-induced tube formation of HUVECs in vitro, and on neovascular formation in vivo.

Cc1ccc(-c2n[nH]c3ccccc23)cc1 [Compound 10, 3-(4-Methylphenyl)-1H-indazole]
inhibitory effect on VEGF-induced cell proliferation of HUVECs ([3H]thymidine incorporation) ([1]; 10 μM, FIG. 6): significant inhibitory effect
inhibitory effect on VEGF-induced cell proliferation of HUVECs ([3H]thymidine incorporation) ([1]; 30 μM, FIG. 5): significant inhibitory effect
melting point: 106 to 107 °C

CCOC(=O)c1ccc(-c2n[nH]c3ccccc23)cc1 [Compound 11, Ethyl 4-(1H-indazol-3-yl)benzoate]
melting point: 133 to 135 °C

Cc1ccc(-c2nn(Cc3ccc(Cl)cc3)c3ccccc23)cc1 [Compound 14, 1-(4-Chlorobenzyl)-3-(4-methylphenyl)-1H-indazole]
melting point: 79.9 to 82.3 °C

Cc1ccc(-c2c3ccccc3nn2Cc2ccc(Cl)cc2)cc1 [Compound 15, 2-(4-Chlorobenzyl)-3-(4-methylphenyl)-2H-indazole]
inhibitory activity on tube formation compared with other tested compounds and YD-3 [2]: more potent than other tested compounds and YD-3
blockage of VEGF-induced tube formation of HUVECs [2]: significant blockage
anti-angiogenic activity in Matrigel plug assay (hemoglobin concentration) [3]: significant anti-angiogenic activities
anti-angiogenic potency in Matrigel plug assay compared with positive control YD-3 [3]: superior potency than the positive control YD-3
activity on VEGF-induced cell proliferation of HUVECs compared with positive control YD-3 [1]: better activity than positive control YD-3
inhibitory effect on VEGF-induced cell proliferation of HUVECs ([3H]thymidine incorporation) ([1]; 10 μM, FIG. 6): significant inhibitory effect
inhibitory effect on VEGF-induced cell proliferation of HUVECs ([3H]thymidine incorporation) ([1]; 30 μM, FIG. 5): significant inhibitory effect
anti-angiogenic activity (overall) [4]: significant anti-angiogenic activity
melting point: 107.4 to 109.5 °C

Cc1ccc(-c2nn(Cc3cccc(Cl)c3)c3ccccc23)cc1 [Compound 16, 1-(3-Chlorobenzyl)-3-(4-methylphenyl)-1H-indazole]
melting point: 66.6 to 68 °C

Cc1ccc(-c2c3ccccc3nn2Cc2cccc(Cl)c2)cc1 [Compound 17, 2-(3-Chlorobenzyl)-3-(4-methylphenyl)-2H-indazole]
blockage of VEGF-induced tube formation of HUVECs [2]: significant blockage
anti-angiogenic activity in Matrigel plug assay (hemoglobin concentration) [3]: significant anti-angiogenic activities
inhibitory effect on VEGF-induced cell proliferation of HUVECs ([3H]thymidine incorporation) ([1]; 10 μM, FIG. 6): significant inhibitory effect
inhibitory effect on VEGF-induced cell proliferation of HUVECs ([3H]thymidine incorporation) ([1]; 30 μM, FIG. 5): significant inhibitory effect
melting point: 98 to 100 °C

Cc1ccc(-c2nn(Cc3ccccc3Cl)c3ccccc23)cc1 [Compound 18, 1-(2-Chlorobenzyl)-3-(4-methylphenyl)-1H-indazole]
melting point: 77.6 to 78.8 °C

Cc1ccc(-c2c3ccccc3nn2Cc2ccccc2Cl)cc1 [Compound 19, 2-(2-Chlorobenzyl)-3-(4-methylphenyl)-2H-indazole]
melting point: 131.3 to 137.8 °C

Cc1ccc(Cn2nc(-c3ccc(C)cc3)c3ccccc32)cc1 [Compound 20, 1-(4-Methylbenzyl)-3-(4-methylphenyl)-1H-indazole]
melting point: 79.6 to 82.3 °C

Cc1ccc(Cn2nc3ccccc3c2-c2ccc(C)cc2)cc1 [Compound 21, 2-(4-Methylbenzyl)-3-(4-methylphenyl)-2H-indazole]
inhibitory activity on tube formation compared with other tested compounds and YD-3 [2]: more potent than other tested compounds and YD-3
blockage of VEGF-induced tube formation of HUVECs [2]: significant blockage
anti-angiogenic activity in Matrigel plug assay (hemoglobin concentration) [3]: significant anti-angiogenic activities
anti-angiogenic potency in Matrigel plug assay compared with positive control YD-3 [3]: superior potency than the positive control YD-3
activity on VEGF-induced cell proliferation of HUVECs compared with positive control YD-3 [1]: better activity than positive control YD-3
inhibitory effect on VEGF-induced cell proliferation of HUVECs ([3H]thymidine incorporation) ([1]; 10 μM, FIG. 6): significant inhibitory effect
inhibitory effect on VEGF-induced cell proliferation of HUVECs ([3H]thymidine incorporation) ([1]; 30 μM, FIG. 5): significant inhibitory effect
anti-angiogenic activity (overall) [4]: significant anti-angiogenic activity
melting point: 107.5 to 109.3 °C

Cc1ccc(-c2nn(Cc3ccccc3C)c3ccccc23)cc1 [Compound 22, 1-(2-Methylbenzyl)-3-(4-methylphenyl)-1H-indazole]
melting point: 114.1 to 116.5 °C

Cc1ccc(-c2c3ccccc3nn2Cc2ccccc2C)cc1 [Compound 23, 2-(2-Methylbenzyl)-3-(4-methylphenyl)-2H-indazole]
melting point: 125 to 128.8 °C

Cc1ccc(-c2c3ccccc3nn2Cc2ccccc2)cc1 [Compound 26, 2-Benzyl-3-(4-methylphenyl)-2H-indazole]
blockage of VEGF-induced tube formation of HUVECs [2]: significant blockage
anti-angiogenic activity in Matrigel plug assay (hemoglobin concentration) [3]: significant anti-angiogenic activities
inhibitory effect on VEGF-induced cell proliferation of HUVECs ([3H]thymidine incorporation) ([1]; 10 μM, FIG. 6): significant inhibitory effect
inhibitory effect on VEGF-induced cell proliferation of HUVECs ([3H]thymidine incorporation) ([1]; 30 μM, FIG. 5): significant inhibitory effect
melting point: 110.7 to 111.3 °C

CCOC(=O)c1ccc(-c2c3ccccc3nn2Cc2ccccc2)cc1 [Compound 28, Ethyl 4-(2-benzyl-2H-indazol-3-yl)benzoate]
melting point: 112 to 113 °C

COC(=O)c1ccc(-c2nn(Cc3ccc(F)cc3)c3ccccc23)cc1 [Compound 29, Methyl 4-[1-(4-fluorobenzyl)-1H-indazol-3-yl]benzoate]
melting point: 118 to 120 °C

COC(=O)c1ccc(-c2c3ccccc3nn2Cc2ccc(F)cc2)cc1 [Compound 30, Methyl 4-[2-(4-fluorobenzyl)-2H-indazol-3-yl]benzoate]
melting point: 121 to 122 °C

CCOC(=O)c1ccc(-c2nn(Cc3ccccc3F)c3ccccc23)cc1 [Compound 31, Ethyl 4-[1-(2-fluorobenzyl)-1H-indazol-3-yl]benzoate]
melting point: 102 to 103 °C

CCOC(=O)c1ccc(-c2c3ccccc3nn2Cc2ccccc2F)cc1 [Compound 32, Ethyl 4-[2-(2-fluorobenzyl)-2H-indazol-3-yl]benzoate]
melting point: 94 to 96 °C

COC(=O)c1ccc(-c2nn(Cc3ccco3)c3ccccc23)cc1 [Compound 33, Methyl 4-[1-(2-furylmethyl)-1H-indazol-3-yl]benzoate]
melting point: 99 to 101 °C

COC(=O)c1ccc(-c2c3ccccc3nn2Cc2ccco2)cc1 [Compound 34, Methyl 4-[2-(2-furylmethyl)-2H-indazol-3-yl]benzoate]
melting point: 140 to 143 °C

O=C(O)c1ccc(-c2c3ccccc3nn2Cc2ccccc2)cc1 [Compound 35, 4-(2-Benzyl-2H-indazol-3-yl)benzoic acid]
melting point: 159 to 163 °C

O=C(O)c1ccc(-c2c3ccccc3nn2Cc2ccc(F)cc2)cc1 [Compound 36, 4-[2-(4-Fluorobenzyl)-2H-indazol-3-yl]benzoic acid]
melting point: 237 to 239 °C

O=C(NO)c1ccc(-c2c3ccccc3nn2Cc2ccccc2)cc1 [Compound 38, 4-(2-Benzyl-2H-indazol-3-yl)-N-hydroxybenzamide]
melting point: 201 to 203 °C

OCc1ccc(-c2c3ccccc3nn2Cc2ccccc2)cc1 [Compound 39, [4-(2-Benzyl-2H-indazol-3-yl)phenyl]methanol]
melting point: 148 to 149 °C

OCc1ccc(-c2c3ccccc3nn2Cc2ccco2)cc1 [Compound 40, {4-[2-(2-Furylmethyl)-2H-indazol-3-yl]phenyl]methanol]
melting point: 129 to 130 °C
